According to US20210030025A1, “BLOOD-FREE DIET FOR REARING MALARIA MOSQUITO VECTORS” (UNIVERSIDADE NOVA DE LISBOA-INSTITUTO DE HIGIENE E MEDICINA …, priority 2018, published 2021):

Test system: vitellogenin (Vg) transcription in the female mosquito fatbody
Assay: Vg expression 24 h post-feeding on diets (q-RT-PCR)
Format: in vivo, Anopheles coluzzii
Conditions: ΔΔCT method
Procedure: FIG. 2a. Effects of the fresh-blood-free diets on oogenesis: Expression of vitellogenin precursor. Relative expression was determined using the ΔΔCT method as fold change to mosquitoes fed on the ILD, where RLD-NoP and ILD-NoP represent liquid diet compositions not supplemented with peptides, blood represent conventional blood diets and the remaining RLDs and ILDs represent respectively Rich Liquid Diet and Initial Liquid Diet supplemented with the correspondent indicated peptide P1 to P6.
Oogenesis was assessed by changes in Vg expression 24 h post-feeding (FIG. 2a). Vg expression levels in the fatbodies was quantified using the ΔΔCT method a) after a blood meal, b) after microinjection with the different peptides, and c) after being fed on the various artificial diets as described in section 4. […]
Quantitative Real-time Polymerase Chain Reaction (q-RT-PCR) analysis was used to quantify the expression of Vitellogenin-1 precursor (Vg), a protein biomarker of mosquito oogenesis initiation. Vg expression levels in the fatbodies were quantified using the ΔΔCT method a) after a blood meal, b) after microinjection with the different peptides, and c) after being fed on the various artificial diets. […]
Oogenesis was assessed by changes in Vg expression 24 h post-feeding mosquitoes with the artificial diets of Examples 1 and 2 and conventional vertebrate blood diet (FIG. 2a). […]

Glucagon-like peptide 2 (HADGSFSDEMNTILDNLAARDFINWLIQTKITD; Glucagon-like peptide 2; UniProt P01275 146-178, looked up) [Diet P2, glucagon-like peptide 2 (1-33) (human), from Bachem]
Vg transcript levels after feeding: significantly increased VTG expression
